Test results from patent US20030215523A1, “Medicinal compositions for concomitant use as anticancer agent” (priority 2000, published 2003).
Structures can show the parent of a compound that is named as a salt. Where two headings read alike, the source gives them in different places.

What was measured:
[1] = tested on: Human non-small cell lung cancer LU-99; settings: for Tx4 (days) mean ± S.D.: time in days for tumor size to attain 4 folds of initial tumor size: LU-99 s.c. in nude mice, E7070 25 mg/kg/day i.v. QDx5, CDDP 7.5 mg/kg/day i.v. single dose, + simultaneous (E7070 day 1-5, CDDP day 1), E7070 → CDDP (day 6), CDDP (day 1) → E7070 (day 2-6)
Source text: (§1) J Natl Cancer Inst. Jun. 5, 1996;88(11):747-53; (iii) Effects of growth hormone and testosterone on cortical bone formation and bone density in aged orchiectomized rats. Bone. 1999 May;24(5):491-7).

Human breast cancer HBC4 = experiment: Combined use of E7070 and capecitabine in human breast cancer HBC4 xenograft model; assay type: in vivo
Source text: as §1

[2] = tested on: Human colon cancer strain Colo320D.M.; experiment: Combined use of E7070 and 5-FU in human colon cancer Colo320D.M. xenograft model; settings: for Toxicity Dead/Treated: Colo320D.M. xenograft, nude mice, E7070 30 mg/kg/day QDx5, 5-FU 60 mg/kg/day Q4Dx3
Source text: as §1

[3] = tested on: Human colon cancer strain HCT15; experiment: Combined use of E7070 and MMC in human colon cancer HCT15 xenograft model; settings: for Tx4 (days) mean ± S.D.: time in days for tumor size to attain 4 folds of initial tumor size: HCT15 s.c. in nude mice, E7070 25 mg/kg/day i.v. QDx5 (day 1-5; combination row prints 30 mg/kg/day), MMC 4.19 mg/kg/day i.v. single dose (day 1); for Toxicity Dead/Treated: HCT15 xenograft, nude mice, E7070 QDx5, MMC 4.19 mg/kg/day QDx1
Source text: as §1

[4] = tested on: Human colon cancer strain HCT15; settings: for Tx4 (days) mean ± S.D.: time in days for tumor size to attain 4 folds of initial tumor size: HCT15 s.c. in nude mice, E7070 30 mg/kg/day i.v. QDx5 (day 1-5), CPT-11 75 mg/kg/day i.v. Q4Dx3 (day 1, 5, 9); for Toxicity Dead/Treated: HCT15 xenograft, nude mice, E7070 30 mg/kg/day QDx5, CPT-11 75 mg/kg/day Q4Dx3
Source text: as §1

[5] = tested on: Human colon cancer strain SW620; experiment: Combined use of E7070 and CPT-11 in human colon cancer SW620 xenograft model; settings: for Tx4 (days) mean ± S.D.: time in days for tumor size to attain 4 folds of initial tumor size: SW620 s.c. in nude mice, E7070 25 mg/kg/day i.v. QDx5, CPT-11 62.5 mg/kg/day i.v. Q4Dx3, + simultaneous (E7070 day 1-5, CPT-11 day 1, 5, 9), E7070 → CPT-11 (day 6, 10, 14), CPT-11 → E7070 (day 10-14); for Toxicity mRBW (minimum relative body weight) mean: parentheses: day when RBW was minimal
Source text: as §1
E7070 alone was intravenously administered once per day for5 days (first to fifth days), while CPT-11 alone was intravenously administered 3 times (once every 4 days, that is, on the first, fifth and ninth days).

[6] = Further anticancer agents examined for synergistic effect in combined use with E7070; settings: used in the compositions of the invention (with E7070); model and data not given
[7] = HBC4 xenograft, nude mice, E7070 30.625 mg/kg/day, capecitabine 1.3125 mmol/kg/day
[8] = LU-99 xenograft, nude mice, E7070 25 mg/kg/day QDx5, CDDP 7.5 mg/kg/day QDx1
[9] = SW620 xenograft, nude mice, E7070 25 mg/kg/day QDx5, CPT-11 62.5 mg/kg/day Q4Dx3

## N.N.[Cl][Pt][Cl] [CDDP, cis-diamminedichloroplatinum, reference compound]
[1]
  Tx4 (days) mean ± S.D.: time in days for tumor size to attain 4 folds of initial tumor size: 10.7 ± 0.5 days

## NS(=O)(=O)c1ccc(S(=O)(=O)Nc2cccc3c(Cl)c[nH]c23)cc1 [E7070, N-(3-chloro-1H-indol-7-yl)-4-sulfamoylbenzenesulfonamide]
Human breast cancer HBC4; HBC4 s.c. in nude mice, E7070 30.625 mg/kg/day (87.5% MTD) once per day for 5 days, capecitabine 1.3125 mmol/kg/day (87.5% MTD) once per day for 14 days, combination: E7070 day 1-5, capecitabine day 6-19
  Tx4 (days): time in days for tumor size to attain 4 folds of initial size: 50.0 ± 8.1 days
Human breast cancer HBC4; [7]
  CR, complete response: incidence of tumor free mice: 0/6
  PR, partial response: incidence of tumor regression (more than 50% of tumor regression): 6/6
  mRTV (minimum relative tumor volume): 0.24 ± 0.07
Human breast cancer HBC4; HBC4 xenograft, Tx4 of treated versus control, E7070 30.625 mg/kg/day, capecitabine 1.3125 mmol/kg/day
  T · C: 28.0 days
[2]; Colo320D.M. s.c. in nude mice, E7070 30 mg/kg/day i.v. QDx5, 5-FU 60 mg/kg/day i.v. Q4Dx3, + simultaneous (E7070 day 1-5, 5-FU day 1, 5, 9), E7070 → 5-FU (day 6, 10, 14), 5-FU → E7070 (day 10-14)
  Tx4 (days) mean ± S.D.: time in days for tumor size to attain 4 folds of initial tumor size: 11.2 ± 1.9 days
[2]
  Toxicity Dead/Treated: 0/6
[3]
  Tx4 (days) mean ± S.D.: time in days for tumor size to attain 4 folds of initial tumor size: 12.7 ± 2.2 days
  Toxicity Dead/Treated: 0/6
[1]
  Tx4 (days) mean ± S.D.: time in days for tumor size to attain 4 folds of initial tumor size: 18.2 ± 2.3 days
[1]; [8]
  Toxicity Dead/Treated: 0/6
  mRTV (minimum relative tumor volume) mean ± S.D.: 0.75 ± 0.16
[4]
  Tx4 (days) mean ± S.D.: time in days for tumor size to attain 4 folds of initial tumor size: 18.7 ± 2.0 days
  Toxicity Dead/Treated: 0/6
[5]
  Tx4 (days) mean ± S.D.: time in days for tumor size to attain 4 folds of initial tumor size: 30.2 ± 6.1 days
[5]; [9]
  Toxicity Dead/Treated: 0/6
  Toxicity mRBW (minimum relative body weight) mean: 0.98(8)
[5]; SW620 xenograft, nude mice, E7070 25 mg/kg/day QDx5, CPT-11 62.5 mg/kg/day Q4Dx3, parentheses: day when RTV was minimal
  mRTV (minimum relative tumor volume) mean ± S.D.: 0.76 ± 0.42(12)

## CCc1c2c(nc3ccc(OC(=O)N4CCC(N5CCCCC5)CC4)cc13)-c1cc3c(c(=O)n1C2)COC(=O)[C@]3(O)CC [CPT-11, [1,4′-Bipiperidine]-1′-carboxylic acid (S)-4,11-diethyl-3,4,12,14-tetrahydro-4-hydroxy-3,14-dioxo-1H-pyrano-[3′,4′:6,7]-indolizino[1,2-b]quinolin-9-yl ester Hydrochloride trihydrate, reference compound]
[4]
  Tx4 (days) mean ± S.D.: time in days for tumor size to attain 4 folds of initial tumor size: 17.8 ± 1.0 days
  Toxicity Dead/Treated: 0/6
[5]
  Tx4 (days) mean ± S.D.: time in days for tumor size to attain 4 folds of initial tumor size: 48.7 ± 29.7 days
[5]; [9]
  Toxicity Dead/Treated: 0/6
  Toxicity mRBW (minimum relative body weight) mean: 0.99(8)

## COc1cccc2c1C(=O)c1c(O)c3c(c(O)c1C2=O)C[C@@](O)(C(=O)CO)C[C@@H]3O[C@H]1C[C@H](N)[C@H](O)[C@H](C)O1 [doxorubicin, 10-[(3-amino-2,3,6-trideoxy-α-L-1yxo-hexopyranosyl)oxy]-7,8,9,10-tetrahydro-6,8,11-trihydroxy-8-(hydroxyacetyl)-1-methoxy-(8S-cis)-5,12-naphthacenedione]
[6]
  Antitumor activity when examined for synergistic effect (in words): excellent antitumor activity

## Nc1ccn([C@@H]2O[C@H](CO)[C@@H](O)C2(F)F)c(=O)n1 [gemcitabine hydrochloride, 2′-deoxy-2′,2′-difluoro-cytidine hydrochloride]
[6]
  Antitumor activity when examined for synergistic effect (in words): excellent antitumor activity

## CO[C@@]12[C@H](COC(N)=O)C3=C(C(=O)C(C)=C(N)C3=O)N1C[C@@H]1N[C@@H]12 [MMC, [1aS-(1aα,8β,8aα,8bα)]-6-amino-8-[[(aminocarbonyl)oxy]methyl]1,1a,2,8,8a,8b-hexahydro-8a-methoxy-5-methylazirino[2′,3′:3,4]pyrrolo[1,2-a]indole-4,7-dione, reference compound]
[3]
  Tx4 (days) mean ± S.D.: time in days for tumor size to attain 4 folds of initial tumor size: 16.2 ± 3.4 days
  Toxicity Dead/Treated: 0/6

## O=c1[nH]cc(F)c(=O)[nH]1 [5-FU, 5-fluoro-2,4-(1H,3H)-pyrimidinedione, reference compound]
[2]
  Toxicity Dead/Treated: 0/6
